# Legend:
# [1] = Sensory evaluation (taste test) of rebaudiosides against sucrose controls; type: in vivo; details: rebaudioside 300 ppm in bottled water, room temperature; vs 1.0%, 3.0%, 6.0% sucrose (w/v); panel of 13 volunteer human subjects
# Method: A sensory evaluation of rebaudiosides was performed using sucrose as a control. The sucrose sample was purchased from Sigma-Aldrich and was used to prepared control samples at three different concentrations of 1.0%, 3.0%, and 6.0% sucrose in bottled water (w/v) at room temperature. The rebaudioside was prepared at 300 ppm for sensory evaluation by adding a corresponding mass into 1000 mL of bottled water. The mixture was stirred at room temperature and the steviol glycoside sample was then evaluated against several control sucrose samples at 1.0%, 3.0%, and 6.0% by a panel of 13 volunteer human subjects.
# [2] = relative to table sugar (sucrose); cited from earlier work
# [3] = In vitro conversion of Reb D4 to Reb M by recombinant UGT polypeptides, HPLC analysis; type: biochemical; details: 10 μg polypeptide, 1 mg/ml Reb D4, 1 mM UDP-glucose, 30° C., 30 min and 1 hr; compared with UGT76G1
# Method: In this Example, to confirm the conversion of Reb D4 to rebaudioside M in vitro, the UGT76G1, CP1 and enzyme mutants were assayed using Reb D4 as the steviol glycoside substrate. The recombinant polypeptide (10 μg) was tested in a 200 μL in vitro reaction system. The reaction system contained 50 mM potassium phosphate buffer, pH 7.2, 3 mM MgCl2, 1 mg/ml steviol glycoside substrate, and 1 mM UDP-glucose. The reaction was performed at 30° C. and terminated by adding 200 μL of 1-butanol. The samples were extracted three times with 200 μL of 1-butanol. The pooled fraction was dried and dissolved in 70 μL of 80% methanol for high-performance liquid chromatography (HPLC) analysis. Rebaudioside D4 were used as substrate. HPLC analysis was performed using a Dionex UPLC ultimate 3000 system (Sunnyvale, Calif.), including a quaternary pump, a temperature controlled column compartment, an auto sampler and a UV absorbance detector. Synergi Hydro-RP column with guard column was used for the characterization of steviol glycosides. Acetonitrile in water was used for elution in HPLC analysis. The detection wavelength was 210 nm.
Molecule,Fold increase in sweetness relative to sucrose [1] [fold],also measured
C=C1C[C@@]23CC[C@H]4[C@@](C)(CCC[C@@]4(C)C(=O)OC4OC(CO)C(O)C(OC5OC(CO)C(O)C(O)C5O)C4OC4OC(CO)C(O)C(O)C4O)[C@@H]2CC[C@]1(OC1OC(CO)C(O)C(O)C1O)C3 (some centres unmarked) [Reb WB1],133,
C=C1C[C@@]23CC[C@H]4[C@@](C)(CCC[C@@]4(C)C(=O)O[C@@H]4O[C@H](CO)[C@@H](O)[C@H](O)[C@H]4O)[C@@H]2CC[C@]1(O[C@@H]1O[C@H](CO)[C@@H](O)[C@H](O)[C@H]1O[C@@H]1O[C@H](CO)[C@@H](O)[C@H](O)[C@H]1O)C3 [stevioside],,sweetness relative to sucrose (times sweeter than sucrose) [2]: 100-150 times
"C=C1C[C@@]23CC[C@H]4[C@@](C)(CCC[C@@]4(C)C(=O)OC4OC(CO)C(O)C(OC5OC(CO)C(O)C(O)C5O)C4OC4OC(CO)C(O)C(O)C4O)[C@@H]2CC[C@]1(OC1OC(CO)C(O)C(O)C1OC1OC(CO)C(O)C(O)C1O)C3 (stereo partly drawn) [Reb D4, 13-[(2-O-β-D-glucopyranosyl-β-D-glucopyranosyl)oxy] ent-kaur-16-en-19-oic acid-[(2-O-β-D-glucopyranosyl-3-O-β-D-glucopyranosyl-β-D-glucopyranosyl) ester]]",109,
C=C1C[C@@]23CC[C@H]4[C@@](C)(CCC[C@@]4(C)C(=O)OC4OC(CO)C(O)C(OC5OC(CO)C(O)C(O)C5O)C4OC4OC(CO)C(O)C(O)C4O)[C@@H]2CC[C@]1(O)C3 (some centres unmarked) [Reb WB2],79,
"CP1: circular permutation of UGT76G1 enzyme (SEQ ID NO: 3) (protein, CP1 amino acid sequence) MNWQILKEILGKMIKQTKASSGVIWNSFKELEESELETVIREIPAPSFLIPLPKHLTASSSSLLDHDRTVFQWLDQQPPSSVLYVSFGSTSEVDEKDFLEIARGLVDSKQSFLWVVRPGFVKGSTWVEPLPDGFLGERGRIVKWVPQQEVLAHGAIGAFWTHSGWNSTLESVCEGVPMIFSDFGLDQPLNARYMSDVLKVGVYLENGWERGEIANAIRRVMVDEEGEYIRQNARVLKQKADVSLMKGGSSYESLESLVSYISSLENKTETTVRRRRRIILFPVPFQGHINPILQLANVLYSKGFSITIFHTNFNKPKTSNYPHFTFRFILDNDPQDERISNLPTHGPLAGMRIPIINEHGADELRRELELLMLASEEDEEVSCLITDALWYFAQSVADSLNLRRLVLMTSSLFNFHAHVSLPQFDELGYLDPDDKTRLEEQASGFPMLKVKDIKSAYS",,"enzymatic activity, transfer of one glucose to Reb D4 to form Reb M [3]: significantly higher enzymatic activity than UGT76G1"

# From patent publication US11680281B2, “Biosynthetic production of steviol glycosides and processes therefore” (Conagen Inc., priority 2016, dated 2023)
